Data on 6 compounds can be found in patent publication US4000269A, “S-(α-substituted-arylmethylthio, -arylmethylsulfinyl, and -arylmethylsulfonyl)methyl phosphorus esters used as insecticides” (priority 1975, dated 1976).

The term LD50 denotes the dose at which mortality reaches 50%. Higher therefore signals lower toxicity.

Data set [1] deals with False wireworm larvae (Eleodes suturalis). The data set can be described thus: False Wireworm Control (treated soil, dust on talc). It is filed as in vivo. Particulars: 144 h, potting soil, mortality after 6 days, read-out: Percent Control of False Wireworms. The protocol: Compounds are prepared as dusts on talc. The compounds are dissolved in acetone, and appropriate rates obtained by serial dilution. One and one-quarter milliliters of solution is pipetted onto a standard volume of dust in 1 -ounce jars, and the acetone allowed to evaporate. Twenty-five milliliters of moist soil and about three wheat seeds are placed in the jar, capped, and the contents thoroughly mixed. Ten False wireworm larvae (Eleodes suturalis ), 10 days old, are then placed in each jar. Mortality counts are made after 6 days and percent mortality determined.

Data set [2] deals with Southern corn rootworm larvae (Diabrotica undecimpunctata). Briefly: Southern Corn Rootworm Control (treated soil, dust on talc). The format is in vivo. Conditions: 144 h, potting soil, mortality after 6 days, read-out: Percent Control of Southern Corn Rootworm Larvae; for mortality at 11208.5 g/ha: 10 lbs./Acre; for mortality at 56042.5 g/ha: 50 lbs./Acre; for mortality at 1120.85 g/ha: 1 lbs./Acre. The protocol:
Compounds are prepared as dusts on talc. The compounds are dissolved in acetone, and appropriate rates obtained by serial dilution. One and one-quarter milliliters of solution is pipetted onto a standard volume of dust in 1 -ounce jars, and the acetone allowed to evaporate. Twenty-five milliliters of moist soil and about 200 millet seeds are placed in the jar, capped and the contents thoroughly mixed. Ten second-instar larvae of the Southern corn rootworm (Diabrotica undecimpunctata ) are then placed in each jar. Mortality counts are made after 6 days and percent mortality determined.

Data set [3] in a line: Mammalian Toxicity Studies (LD50 for Rats). Also noted: species or system male albino rats (Carworth Farms Nelson strain). Conditions: rat, in vivo; 14-day observation; corn oil. Here is the method:
Twenty male albino rats or mice of the Carworth Farms Nelson strain (CFI strain for mice)(or other suitable strain) weighing approximately 90 to 120 grams (18-20g. for mice) are selected. Basically, these animals are fasted 24 hours before dosing. Mice are not fasted.
For materials which are soluble or easily dispersed in an aqueous medium, a 20% solution or suspension is prepared in an aqueous solution of 0.2% agar and 0.1% "Tween" 80. The same series of dosages (grams or milliliters of material per kilogram of animal body weight) are used for all materials in this test. If no previous information is available on the compound or its analogs, a maximum dosage of 10 g/kg is selected to differ by a geometric factor of 2 from the preceding dose, i.e., 10, 5, 2.5, 1.25 g/kg. A sufficient number of dosages are given so as to bracket a 50% response. The animals are observed for several hours after dosing and daily over a 14-day observation period. At the end of this period the survivors are sacrificed, weighed and subjected to a gross autopsy. The results are tabulated and the LD50 is calculated by the method of moving averages using the tables constructed by Weil. [Weil, C. S., Biometrics, 8: (3), 249-263, 1952].
Samples received as liquids may be administered undiluted or as suspensions in aqueous Agar-Tween, depending on the viscosity of the material. If the material is believed to be relatively non-toxic, an initial maximum dosage of 10 ml/kg is selected and subsequent dosages are selected based upon the severity of gross signs of toxicity.
For organic phosphate anticholinesterase insecticides, the procedure is modified somewhat. The phosphates are readied for administration by preparing a solution or dispersion in corn oil (Mazola), the concentration of which is adjusted so that the total volume of the dose is 20 ml/kg ([…]) in every case. The initial solution is prepared by deciding upon the maximum dosage in mg/kg to be administered and preparing 50 ml. (10 in mouse test) of this solution of such a concentration that the desired dosage in mg/kg is delivered when 2 ml. (0.5 ml. in mouse test) of the solution is administered for 100 g (20 g in mouse) of rat body weight. Serial dilutions differing by a factor of two are then prepared for each lower dosage level.

For data set [4], the system named is Tarnished Plant Bug (Lygus lineolaris). The data set can be described thus: A. Tarnished Plant Bug leaf-dip test. It is filed as in vivo. Conditions: 48 h, 100 ppm., 2 days, read-out: Percent Mortality, Tarnished plant Bug. Here is the method:
Test compounds are prepared as 1000 ppm. solutions in 10 % acetone, 0.2 % Alrodyne 315 , and 89.8 % water. A tenfold dilution is made with 65 % acetone and 35 % water. The primary leaves of Sieva lima bean plants are dipped for 3 to 5 seconds in the test solutions and placed in an exhaust hood to dry. When dry, each leaf is placed in a 4 -inch petri dish with a moist filter paper on the bottom. Ten adult Lygus bugs are aspirated from the stock culture and placed in the petri dish. The dishes are covered and held at 80° F. and 50 % R.H. After 2 days, mortality counts are made.

The subject of data set [5] is Boll Weevil (Anthonomus grandis). Briefly: B. Boll Weevil leaf-dip test. It is filed as in vivo. Conditions: 48 h, 100 ppm., 2 days, read-out: Percent Mortality, Boll Weevil. The protocol:
Test compounds are prepared as 1000 ppm. solutions in 10 % acetone, 0.2 % Alrodyne 315 , and 89.8 % water. A tenfold dilution is made with 65 % acetone and 35 % water. The first or second true leaf of young cotton plants is dipped for 3 to 5 seconds in the test solution and placed in an exhaust hood to dry. When dry, each leaf is placed in a 4 -inch petri dish with a moist filter paper on the bottom. Ten adult boll weevils are removed from the stock culture and placed in the petri dish. The dishes are covered and held at 80° F. and 50 % R.H. After 2 days, mortality counts are made.

Another data set deals with Bean Aphid (Aphis fabae). The data set can be described thus: C. Bean Aphid spray test. The format is in vivo. Conditions: 48 h, 2 days, read-out: Percent Mortality, Bean Aphid. The protocol: Compounds are tested at 100 , 10 and 1 ppm. in solution or suspension in 65 % acetone/35 % water. Two-inch fiber pots each containing a nasturtium plant 2 inches high and infested with about 150 aphids 2 days earlier, are placed on a turntable (4 RPM) and sprayed for two revolutions with a No. 154 DeVilbiss Atomizer at 20 psi. air pressure. The spray tip is held about 6 inches from the plants, and the spray is directed so as to give complete coverage of the aphids and the plants. The sprayed plants are laid on their sides on white enamel trays. Mortality estimates are made after holding for 2 days at 70° F. and 50% R.H.

Data set [6] has as its system Southern Armyworm (Prodenia eridania). Briefly: D. Southern Armyworm leaf-dip test. Particulars: Spodoptera eridania, 48 h, 2 days, read-out: Percent Mortality, Southern Armyworm. The format is in vivo. Here is the method: Compounds are tested at 1000 and 100 ppm. in solution or suspension in 65 % acetone/35 % water. Sieva lima bean primary leaves are dipped for 3 seconds in the test solution and set in a hood on a screen to dry. When dry, each leaf is placed in a 4 -inch petri dish which has a moist filter paper in the bottom and ten third-instar armyworm larvae about 3/8 inch long. The dishes are covered and held at 80° F., and 60 % R.H. After 2 days, mortality counts and estimates of the amount of feeding are made. Compounds showing partial kill and/or inhibition of feeding are held an extra day for further observations.

Data set [7] has as its system Two-spotted Spider Mite (Tetranychus urticae). Briefly: E. Two-spotted Spider Mite plant-dip test. The format is in vivo. Particulars: 48 h, read-out: Percent Mortality, Two-spotted Spider Mite; for mortality at 100 ppm: 2 days. Here is the method: Sieva lima bean plants with primary leaves 3 to 4 inches long are infested with about 100 adult mites per leaf 4 hours before use in this test. The mite and egg infested plants are dipped for 3 seconds in the same solutions used in the aphid test, and the plants set in the hood to dry. They are held for 2 days at 80° F., 60% R.H., and the adult mite mortality estimated on one leaf under a steroscopic microscope. The other leaf is left on the plant an additional 5 days and then examined at 10 X power to estimate the kill of eggs and of newly hatched nymphs, giving a measure of ovicidal and residual action, respectively.

Data set [8] relates to Mexican Bean Beetle (Epilachna varivestis). The data set can be described thus: F. Mexican Bean Beetle leaf-dip test. Particulars: 48 h, 2 days, read-out: Percent Mortality, Mexican Bean Beetle. It is filed as in vivo. The protocol:
Compounds to be tested are made up as 100 or 10 ppm. solutions in 65 % acetone/35 % water. Sieva lima bean leaves are dipped in the test solution and set in the hood to dry. When dry, they are placed in 4 -inch petri dishes which have a moist filter paper in the bottom, and 10 third-instar bean beetles are added to each dish. The dishes are covered and held at 80° F., 60 % R.H. After 2 days, mortality counts and estimates of the amount of feeding are made. Compounds showing kills greater than 75 % are further tested at tenfold dilutions in 65 % acetone/35 % water.

In data set [9] the test system is Western Potato Leafhopper (Empoasca abrupta). Briefly: G. Western Potato Leafhopper plant-dip test. It is filed as in vivo. Conditions: 48 h, 2 days, read-out: Percent Mortality, Western Potato Leafhopper. The protocol: Sieva lima bean plants with the primary leaf expanded to 3 to 4 inches are dipped into 100 or 10 ppm. 50 % acetone/50 % water solutions and set in the hood to dry. A 1 -inch piece of the tip of a treated leaf is cut off and placed in a 4 -inch petri dish with a moist filter paper in the bottom. From 3 to 10 second-instar nymphs are tapped from the culture plants into the test dish and rapidly covered. Mortality counts are made after 2 days at 80° F., and 50 % R.H.

In data set [10] the test system is Malaria Mosquito (Anopheles quadrimaculatus). Briefly: H. Malaria Mosquito Adult Test. It is filed as in vivo. Conditions: 24 h, adults, 1 day, read-out: Percent Mortality, Malaria Mosquito. Here is the method:
Solutions of 65% acetone/35% water containing 10 ppm. of test compound are poured into wide-mouth 2-ounce jars, each containing a microscope slide. The slides are removed from the test solution with forceps and laid horizontally to dry on a wide-mouth 4-ounce bottle. When dry, they are placed in the same 4-ounce bottle and 10 4- to 5-day-old mosquitoes of mixed sexes are added to each bottle. A piece of cotton gauze held on by an elastic band serves as a lid, and wad of cotton soaked in 10% honey solution serves as food. Mortality counts are made after 1 day at 80° F., 50% R.H. (relative humidity) Data obtained with the above procedures are reported in Table II below.

With `CC(C)OP(=S)(OC(C)C)SCSC(C)(C)c1ccccc1` [Example 20, S-(α,α-Dimethylbenzylthio)methyl O,O-diisopropylPhosphorodithioate], the mortality at 11208.5 g/ha in data set [1] (10 lbs./Acre) and in data set [2] was 0% throughout. In addition, the mortality at 56042.5 g/ha in data set [1] (50 lbs./Acre) and in data set [2] was 100% throughout.
Consider `CCOP(=S)(OCC)SCSC(C)(C)c1ccc(Cl)cc1` [Example 6, S-(p-Chloro-α,α-Dimethylbenzylthio)methyl O,O-Diethyl Phosphorodithioate], for which, in data set [2], the mortality at 1120.85 g/ha came out at 0%, the mortality at 11208.5 g/ha is 90% and the mortality at 56042.5 g/ha stood at 100%. The LD50 at 336 h in data set [3] came to 79 mg/kg.
For the compound `COP(=S)(OC)SCSC(C)(C)c1cccc(Cl)c1Cl` [Example 23, S-(2,3-Dichloro-α,α-dimethylbenzylthio)methyl O,O-Dimethyl Phosphorodithioate], in data set [2], the mortality at 1120.85 g/ha turned out to be 60%, the mortality at 11208.5 g/ha is 90% and the mortality at 56042.5 g/ha amounted to 100%. For the same compound, the LD50 at 336 h in data set [3] was greater than 500 mg/kg.
With `CCOP(=S)(OCC)SCSC(C)c1ccccc1` (centres unmarked) [drawing 7], the mortality at 100 ppm was found to be 70% in data set [4]; 0% in [5]; 100% with Bean Aphid (Aphis fabae); 30% in [6]; 0% in data set [7]; 100% in [8]. Also, the mortality at 100 ppm in data set [9] was 100%. Besides, in the data set on Bean Aphid (Aphis fabae), the mortality at 1 ppm was found to be 100%. Further, the mortality at 10 ppm with Bean Aphid (Aphis fabae) stood at 100%; in data set [8], 0%; in [9], 100%; in data set [10] it was 100%. Also, the mortality at 1000 ppm in [6] was 100%. Also, in data set [7], the mortality at 300 ppm worked out at 100%.
As for `COP(=O)(SC)SCSC(C)(C)c1ccc(Cl)cc1` (centres unmarked) [drawing 23], the mortality at 100 ppm in data set [4] was 0%; in [5], 90%; in the data set with Bean Aphid (Aphis fabae), 100%; in [6], 0%; in data set [7], 0%; in data set [8] it was 40%. Also, the mortality at 100 ppm in data set [9] is 100%. For the same compound, in the data set on Bean Aphid (Aphis fabae), the mortality at 1 ppm came out at 95%. The mortality at 10 ppm in the data set with Bean Aphid (Aphis fabae) was 100%; in data set [8], 0%; in [9], 0%; in data set [10] it was 0%. Further, the mortality at 1000 ppm in data set [6] is 100%. Besides, the mortality at 300 ppm in data set [7] came to 50%.
Regarding `CCOP(=S)(OCC)SCSC(C)(CC)c1ccccc1` (centres unmarked) [drawing 14], the mortality at 100 ppm in [4] stood at 0%; in [5], 0%; in the data set with Bean Aphid (Aphis fabae), 100%; in data set [6] it was 0%; in [7] it was 0%; in data set [8], 0%. For the same compound, in data set [9], the mortality at 100 ppm came out at 100%. Moreover, the mortality at 1 ppm with Bean Aphid (Aphis fabae) was determined as 100%. Also, the mortality at 10 ppm with Bean Aphid (Aphis fabae) was found to be 100%; in data set [9], 0%; in data set [10], 70%. In data set [6], the mortality at 1000 ppm turned out to be 100%. Further, the mortality at 300 ppm in [7] was found to be 50%.
